Reference: patent US20100286186A1, “NOVEL DICARBOXYLIC ACID LINKED AMINO ACID AND PEPTIDE PRODRUGS OF OPIOIDS AND USES THEREOF” (Shire LLC, priority 2009, published 2010)
“And” between values parts separate entries of the source, which are not always exact repeats. Equal values may be shown once. Marks after values point to notes of the source that are not given here.

Columns and labels:
[1] = Bioavailability of oxycodone, codeine and dihydrocodeine from their succinyl valine ester prodrugs in the dog (oral gavage, two-way crossover); details: dogs, oral gavage; for T>50%Cmax of dihydrocodeine: 1 mg free base equivalents dihydrocodeine/kg; for T>50%Cmax of codeine: 1 mg free base equivalents codeine/kg
Description: The characteristics of the test animals are set out in Table 10, below.
(§1) Blood samples were taken at various times after administration and submitted to analysis for the parent drug and pro-drug using a validated LC-MS-MS assay. Pharmacokinetic parameters derived from the plasma analytical data were determined using Win Nonlin.

[2] = In vitro stability of dicarboxylate amino acid ester prodrugs in simulated gastric and intestinal juice, distilled water and pH 10 buffer (HPLC); details: for Simulated gastric fluid (pH 1.1): % remaining after 2 h/37° C.: pH 1.1, 2 h; for Distilled water (pH 5.9): % remaining after 2 h/20° C.: pH 5.9, 2 h; for Simulated intestinal fluid (pH 6.8): % remaining after 2 h/37° C.: pH 6.8, 2 h; for pH 10.0 buffer: % remaining after 2 h/20° C.: pH 10.0, 2 h
gut motility in the rat = test: Charcoal propulsion test of GI motility in the rat; type: in vivo; details: oral; for delay of the passage of the charcoal meal (gut motility): 30 mg/kg or equimolar dose
Description: Test treatments were administered to groups of up to 10 rats fasted overnight prior to the test.
Test treatments were administered orally 60 minutes prior to a 2.0 mL oral dose of a 10% suspension of charcoal in 5% gum arabic. Thirty minutes after dosing with charcoal, the rats were sacrificed and the entire gastro-intestinal tract quickly and carefully removed. The distance the charcoal meal had traveled from the pyloric sphincter toward the caecum was measured and expressed as a percentage of both the total gut length and the length of the small intestine.

[3] = Systemic availability of hydrocodone in dogs after oral administration of hydrocodone or hydrocodone succinyl valine enol ester; details: 1 mg hydrocodone free base equivalents/kg; for half-life: t½ of hydrocodone
Description: Test substances i.e. hydrocodone or hydrocodone succinyl valine enol ester were administered by oral gavage to a group of five male dogs in a two-way crossover design The characteristics of the test animals are set out in Table 26, below.
as §1

[4] = Plasma pharmacokinetics of meptazinol dicarboxylate linked prodrugs after oral gavage to dogs; type: in vivo, dog; details: dog, 1 mg meptazinol base equivalents/kg; for Dog Cmax (plasma meptazinol) / Dog Cmax (plasma prodrug levels, in brackets): oral gavage of prodrug; for Dog Cmax (plasma meptazinol): meptazinol level; for Dog Cmax (plasma prodrug levels, in brackets): prodrug level, BLQ = below 0.5 ng/mL
[5] = Stability of meptazinol dicarboxylate bridged amino acid prodrugs in simulated gastric and intestinal juice and pH 7.4 buffer; type: physicochemical; details: for 2 h stability in pH7.4 buffer (37° C.), Conversion to meptazinol: pH 7.4 buffer
From the text: Initially the inherent chemical and biological stability of various dicarboxylate bridged amino acid prodrugs of meptazinol, was investigated under the conditions prevailing in the GI tract. Premature hydrolysis of the prodrug in the gut lumen prior to absorption would reduce the opportunity for transient protection of the drug during its passage though the liver and the desired reduction in first pass metabolism.
The remaining concentrations of the prodrug (and also drug released) were then assayed by HPLC. Additionally their chemical stability was evaluated in pH 7.4 buffer for 2 h 37° C.

[6] = Plasma pharmacokinetics of meptazinol dicarboxylate linked prodrugs after oral gavage to cynomolgus monkeys; type: in vivo, cynomolgus monkey; details: 1 mg meptazinol base equivalents/kg; for Monkey Cmax (plasma meptazinol) / Monkey Cmax (plasma prodrug levels, in brackets): cynomolgus monkey, oral gavage of prodrug; for Monkey Cmax (plasma meptazinol): meptazinol level; for Monkey Cmax (plasma prodrug levels, in brackets): prodrug level, BLQ = below 0.5 ng/mL
[7] = Comparative pharmacokinetics of oxycodone in the cynomolgus monkey after oral administration; details: for T>50%Cmax of oxycodone: oral
[8] = Comparative pharmacokinetics of oxycodone after oral administration to female Sprague Dawley rats; details: oral, 10 mg oxycodone free base equivalents/kg, median
[9] = Comparative oral bioavailability of oxycodone from various dicarboxylate bridged amino acid prodrugs in dogs (nine-way crossover); type: in vivo, dog; details: 1 mg/kg oxycodone free base, mean (±sd)
[10] = male dogs, oral, individual dogs 1M-5M
[11] = simulated intestinal fluid, 2 h
[12] = male cynomolgus monkeys, 1 mg oxycodone free base equivalents/kg, mean (n=5)

COc1ccc2c3c1O[C@H]1[C@@H](OC(=O)CCC(=O)NC(C(=O)O)C(C)C)CCC4[C@@H](C2)N(C)CC[C@@]341 (stereo in doubt) [dihydrocodeine-[succinyl-(S)-valine]ester]
T>50%Cmax of dihydrocodeine ([1]; individual dogs 1-5): 3 h (2×) and 2 h and 1 h (2×)
T>50%Cmax of dihydrocodeine ([1]; median (n=5)): 2^a h
Simulated gastric fluid (pH 1.1): % remaining after 2 h/37° C. [2]: 100%
Distilled water (pH 5.9): % remaining after 2 h/20° C. [2]: 100%
Simulated intestinal fluid (pH 6.8): % remaining after 2 h/37° C. [2]: 100%
pH 10.0 buffer: % remaining after 2 h/20° C. [2]: 98%
% change from vehicle-treated animals, small intestine (gut motility in the rat; 10 mg/kg): −17.4%
% change from vehicle-treated animals, total gut length (gut motility in the rat; 10 mg/kg): −16.6%
% change from vehicle-treated animals, small intestine (gut motility in the rat; 30 mg/kg): −8.5%
% change from vehicle-treated animals, total gut length (gut motility in the rat; 30 mg/kg): −8.5%
% change from vehicle-treated animals, small intestine (gut motility in the rat; 100 mg/kg): −13.3%
% change from vehicle-treated animals, total gut length (gut motility in the rat; 100 mg/kg): −12.9%
% change from vehicle-treated animals, small intestine (gut motility in the rat; 300 mg/kg): −35.7%
% change from vehicle-treated animals, total gut length (gut motility in the rat; 300 mg/kg): −35.3%

COc1ccc2c3c1O[C@H]1[C@@H](O)C=C[C@H]4[C@@H](C2)N(C)CC[C@@]341.Cl [Codeine HCl, reference compound]
T>50%Cmax of codeine ([1]; individual dogs 1-5, HCl): 1.5 h (3×) and 0.5 h (2×)
T>50%Cmax of codeine ([1]; median (n=5)): 1.5^a h

COc1ccc2c3c1O[C@H]1[C@@H](OC(=O)CCC(=O)N[C@H](C(=O)O)C(C)C)C=CC4[C@@H](C2)N(C)CC[C@@]341 (stereo partly drawn) [Codeine-[succinyl-(S)-valine] ester, codeine-[succinyl-(S)-valine]ester]
T>50%Cmax of codeine ([1]; individual dogs 1-5): 2 h (4×) and 1 h
T>50%Cmax of codeine ([1]; median (n=5)): 2^a h
Simulated gastric fluid (pH 1.1): % remaining after 2 h/37° C. [2]: 99%
Distilled water (pH 5.9): % remaining after 2 h/20° C. [2]: 100%
Simulated intestinal fluid (pH 6.8): % remaining after 2 h/37° C. [2]: 98%
pH 10.0 buffer: % remaining after 2 h/20° C. [2]: 92%
% change from vehicle-treated animals, small intestine (gut motility in the rat; 10 mg/kg): −9.7%
% change from vehicle-treated animals, total gut length (gut motility in the rat; 10 mg/kg): −9.3%
% change from vehicle-treated animals, small intestine (gut motility in the rat; 30 mg/kg): −15.7%
% change from vehicle-treated animals, total gut length (gut motility in the rat; 30 mg/kg): −15.1%
% change from vehicle-treated animals, small intestine (gut motility in the rat; 100 mg/kg): −16.4%
% change from vehicle-treated animals, total gut length (gut motility in the rat; 100 mg/kg): −15.6%

COc1ccc2c3c1O[C@H]1C(=O)CC[C@H]4[C@@H](C2)N(C)CC[C@]314 [Hydrocodone, hydrocodone]
AUC of hydrocodone [3, 10]: 155 ng·h/mL and 111 ng·h/mL and 91.7 ng·h/mL and 71.0 ng·h/mL and 95.3 ng·h/mL
AUCt of hydrocodone [3, 10]: 154 ng·h/mL and 107 ng·h/mL and 89.2 ng·h/mL and 69.7 ng·h/mL and 94.1 ng·h/mL
Cmax of hydrocodone [3, 10]: 119 ng/mL and 76.8 ng/mL and 57.8 ng/mL and 53.3 ng/mL and 71.1 ng/mL
T>50%Cmax of hydrocodone [3, 10]: 0.75 h (3×) and 1.25 h (2×)
t½ of hydrocodone [3, 10]: 1.58 h and 1.66 h (2×) and 1.46 h
T>50%Cmax of hydrocodone ([3]; male dogs, oral, mean): 0.95 h
Tmax of hydrocodone ([3]; male dogs, oral, median): 0.5* h
Tmax ([3]; male, Beagle, dog, plasma, po): 0.5 h
AUC ([3]; male, Beagle, dog, plasma, po, AUC of hydrocodone, male dogs, mean): 105 ng·h/mL
AUC(0-t) ([3]; male, Beagle, dog, plasma, po, AUCt of hydrocodone, male dogs, mean): 103 ng·h/mL
Cmax ([3]; male, Beagle, dog, plasma, po, Cmax of hydrocodone, male dogs, mean (n=5)): 75.6 ng/mL
half-life ([3]; male, Beagle, dog, plasma, po, male dogs, individual dogs 1M-5M): 1.31 h
half-life ([3]; male, Beagle, dog, plasma, po, male dogs, mean): 1.54 h

CCC1(c2cccc(OC(=O)CCCC(=O)Nc3ccc(C(=O)O)cc3)c2)CCCCN(C)C1 (stereo not drawn) [Meptazinol [glutaryl-PABA] ester]
Dog Cmax (plasma meptazinol) [4]: 3.4 ng/mL
Dog Cmax (plasma prodrug levels, in brackets) [4]: 6.7 ng/mL
2 h stability in pH7.4 buffer (37° C.), Conversion to meptazinol ([5]; 2 h): 80%
1 h stability in simulated gastric fluid (37° C.), Conversion to meptazinol [5]: 5%
2 h stability in simulated intestinal fluid (37° C.), Conversion to meptazinol [5, 11]: 6%
Monkey Cmax (plasma meptazinol) [6]: 1.5 ng/mL
Monkey Cmax (plasma prodrug levels, in brackets) [6]: 1.7 ng/mL

CCC1(c2cccc(OC(=O)C(C)(C)CC(=O)N[C@H](C(=O)O)C(C)C)c2)CCCCN(C)C1 (stereo partly drawn) [Meptazinol-[2,2-dimethylsuccinyl-(S)-valine] ester]
Dog Cmax (plasma meptazinol) [4]: 0.9 ng/mL
Dog Cmax (plasma prodrug levels, in brackets) [4]: 25 ng/mL
2 h stability in pH7.4 buffer (37° C.), Conversion to meptazinol ([5]; 2 h): 2%
2 h stability in simulated intestinal fluid (37° C.), Conversion to meptazinol [5, 11]: 3%
Monkey Cmax (plasma meptazinol) [6]: 0.4 ng/mL
Monkey Cmax (plasma prodrug levels, in brackets) [6]: 100 ng/mL

CCC1(c2cccc(OC(=O)CC(C)(C)CC(=O)NCC(=O)O)c2)CCCCN(C)C1 (stereo not drawn) [Meptazinol-[3,3-dimethylglutaryl-glycine] ester]
Dog Cmax (plasma meptazinol) [4]: 0.5 ng/mL
Dog Cmax (plasma prodrug levels, in brackets) [4]: 29 ng/mL
2 h stability in pH7.4 buffer (37° C.), Conversion to meptazinol ([5]; 2 h): 2%
1 h stability in simulated gastric fluid (37° C.), Conversion to meptazinol [5]: 4%
2 h stability in simulated intestinal fluid (37° C.), Conversion to meptazinol [5, 11]: 4%
Monkey Cmax (plasma meptazinol) [6]: 1.1 ng/mL
Monkey Cmax (plasma prodrug levels, in brackets) [6]: 18 ng/mL

CCC1(c2cccc(OC(=O)CCC(=O)N3CCC[C@H]3C(=O)O)c2)CCCCN(C)C1 (stereo partly drawn) [Meptazinol-[succinyl-(S)-proline] ester]
Dog Cmax (plasma meptazinol) [4]: 0.7 ng/mL
Dog Cmax (plasma prodrug levels, in brackets) [4]: 36 ng/mL
2 h stability in pH7.4 buffer (37° C.), Conversion to meptazinol ([5]; 2 h): 4%
1 h stability in simulated gastric fluid (37° C.), Conversion to meptazinol [5]: 4%
2 h stability in simulated intestinal fluid (37° C.), Conversion to meptazinol [5, 11]: 4%
Monkey Cmax (plasma meptazinol) [6]: 2.0 ng/mL
Monkey Cmax (plasma prodrug levels, in brackets) [6]: 16 ng/mL

COc1ccc2c3c1O[C@H]1C(=O)CC[C@@]4(O)[C@@H](C2)N(C)CC[C@]314 [Oxycodone, oxycodone, reference compound]
T>50%Cmax of oxycodone [7, 12]: 1.8 h
T>50%Cmax of oxycodone [8]: 0.75 h
% change from vehicle-treated animals, small intestine (gut motility in the rat; 10 mg/kg): −15.6%
% change from vehicle-treated animals, total gut length (gut motility in the rat; 10 mg/kg): −16.0%
% change from vehicle-treated animals, small intestine (gut motility in the rat; 30 mg/kg): −52.2%
% change from vehicle-treated animals, total gut length (gut motility in the rat; 30 mg/kg): −52.2%
delay of the passage of the charcoal meal (gut motility) (gut motility in the rat): 52%
% change from vehicle-treated animals, small intestine (gut motility in the rat; 100 mg/kg): −75.5%
% change from vehicle-treated animals, total gut length (gut motility in the rat; 100 mg/kg): −76.5%

COc1ccc2c3c1O[C@H]1C(OC(=O)CCCC(=O)N[C@@H](CC(C)C)C(=O)O)=CC[C@@]4(O)[C@@H](C2)N(C)CC[C@]314 [Oxycodone-Glutaryl-Leu Enol Ester, oxycodone-[glutaryl-(S)-leucine] enol ester]
Simulated gastric fluid (pH 1.1): % remaining after 2 h/37° C. [2]: 98%
Simulated intestinal fluid (pH 6.8): % remaining after 2 h/37° C. [2]: 79%
Cmax of intact prodrug ([7]; male cynomolgus monkeys, oral prodrug, 1 mg oxycodone free base equivalents/kg, individual monkeys 1-5): BLQ
T>50%Cmax of oxycodone ([7]; male cynomolgus monkeys, 1 mg oxycodone free base equivalents/kg, individual monkeys 1-5): 2.33 h and 2.40 h and 3.13 h and 4.66 h and 1.80 h
T>50%Cmax of oxycodone [7, 12]: 2.86 h
T>50%Cmax of oxycodone ([7]; male cynomolgus monkeys, 1 mg oxycodone free base equivalents/kg, mean (n=5), listed as OGLE): 2.9 h
prodrug levels in plasma ([7]; monkeys, oral prodrug): below the limit of quantification
T50% Cmax of oxycodone [9]: 3.4 (±0.7) h.

COc1ccc2c3c1O[C@H]1[C@@H](O)C=C[C@H]4[C@@H](C2)N(C)CC[C@@]341 [codeine, reference compound]
T>50%Cmax of codeine ([1]; median (n=5)): 1.2 h
delay of the passage of the charcoal meal (gut motility) (gut motility in the rat): greater than 30%

CCC1(c2cccc(OC(=O)c3ccccc3C(=O)N[C@@H](Cc3ccccc3)C(=O)O)c2)CCCCN(C)C1.O=C(O)C(F)(F)F (stereo partly drawn) [meptazinol [phthalyl-(S)-phenylalanine]ester trifluoroacetate]
systemic levels of meptazinol versus expected Cmax after the drug itself ([4]; oral gavage): improved systemic levels of meptazinol
Dog Cmax (plasma meptazinol) [4]: 9.1 ng/mL
Dog Cmax (plasma prodrug levels, in brackets) [4]: 71 ng/mL
2 h stability in pH7.4 buffer (37° C.), Conversion to meptazinol ([5]; 2 h): 72%
1 h stability in simulated gastric fluid (37° C.), Conversion to meptazinol [5]: 3%
2 h stability in simulated intestinal fluid (37° C.), Conversion to meptazinol [5, 11]: 30%
degradation in 2 h in simulated intestinal fluid ([5]; simulated intestinal fluid, 2 h, 37° C.): ~30%
Monkey Cmax (plasma prodrug levels, in brackets) [6]: BLQ
improvement in systemic levels of meptazinol ([6]; monkey, oral gavage): not seen in the monkey
